SMILES strings stand for the structures.

Consider one compound from paper PMC4016139, “Inhibition of K^+ Transport through Na^+, K^+-ATPase by Capsazepine: Role of Membrane Span 10 of the α-Subunit in the Modulation of Ion Gating” (PLoS ONE, 2014).

The subject of this assay is T1, Na+,K+-ATPase of adult rat ventricular myocytes.
T1 construct: gene Atp1a1; native pump in isolated adult male ventricular myocytes, whole-cell patch clamp; with Sodium/potassium-transporting ATPase subunit beta-1
Briefly: whole-cell ruptured-patch pump current (K+-dependent Ip). Format: cell-based. As to conditions: 10 min perfusion, 5 mM external K+, 140 mM NaCl, pH 7.2, 35 °C.

With `Oc1cc2c(cc1O)CN(C(=S)NCCc1ccc(Cl)cc1)CCC2` [Capsazepine], the % inhibition (as a rule, the percentage by which the read-out fell short of the control) at 30 μM came to 85%.
